One experiment concerns the target human SCN9A (Nav 1.7) (Homo sapiens, UniProt Q15858). The experiment can be described thus: Measurement of Na ion current (Nav 1.7) by automated patch clamp assay in cells stably-expressing human SCN9A. The experiment is classed as cell-based. As to conditions: read-out: Inhibitory rate (%) of Na ion current; for inhibition at 100 µM: compound concentration 100 μmol/L (footnoted examples). The protocol:
Measurement of Na Ion Current in Voltage-Dependent Na Channel Gene Expressed Cell Nav 1.7 current was measured by automated patch clamp assay using cells stably-expressing human SCN9A. Cells Stably-expressing Human SCN9A Tetracycline-induced cells stably-expressing SCN9A were obtained from ChanTest Corporation. […] Next day, the Na ion current was measured by automated patch clamp assay. Electrophysiologic Measurement of Na Ion Current The Na ion current was measured by automated patch clamp assay using the following extracellular solution and intracellular solution. […] The control of the stimulating pulse and the data acquisition were carried out using EPC10 amplifier and Patch Master Software (HEKA). Data were sampled at 10 kHz, and low-pass filtered at 3 kHz. All the measurements were carried out at room temperature. […] The inhibitory rate of the Na ion current by the test compounds was calculated according to the following calculating formula with the peak current value generated by the depolarizing pulse. […] The inhibitory rate of Na ion current by each Example Compound was evaluated.
A general note: Patch clamp records ionic current or voltage across a cell membrane.

Experiment [1] relates to rats streptozotocin (STZ)-induced diabetic peripheral neuropathy model. The experiment can be described thus: Evaluation of analgesic effect (von Frey test) in streptozotocin-induced diabetic peripheral neuropathy model. The experiment is classed as in vivo, rat. The conditions noted are these: male Wistar rats, 3 mg/kg of body weight, orally, one hour before measuring. The protocol:
Test (2) Evaluation of Analgesic Effect in Streptozotocin-Induced Diabetic Peripheral Neuropathy Models
Using some typical compounds among the compounds of the present invention, the inhibitory effect for neuropathic pain was determined through the evaluation of analgesic effect in rats streptozotocin (STZ)-induced diabetic peripheral neuropathy model.
The disease animal model was prepared by means of a partially-modified method of Fox et al. (Pain 81, 307-316, 1999). STZ was intraperitoneally administered to 9-week old male Wistar rats in 45 mg/kg of body weight to prepare animal model suffering from diabetic peripheral neuropathy. The analgesic effect was evaluated by von Frey test. Specifically, mechanical sensitivity was measured by applying hairs (von Frey hair) to the plantar surface of the animal's hind paw, and then the reaction thresholds (50% paw withdrawal thresholds) for the mechanical stimulation was determined by using a formula based on Chaplan et al. (Journal of Neuroscience Methods 53, 55-63, 1994).
One and two days before evaluating the test compounds, the reaction thresholds were measured to obtain an average thereof, and the average value was used as a reference value obtained before the test compounds would be administered.
In order to reduce the variations of the averaged values among the test groups and the measured values in each group, the animals were divided into 4 to 5 groups.
In the evaluation test of the test compounds, the reaction thresholds were measured after administering each test compound. One hour before measuring the reaction thresholds, each test compound was administered in 3 mg/kg of body weight. The strength of analgesic effect of each test compound is expressed as the extension width (g) of reaction thresholds which is obtained by the calculation formula of (reaction threshold obtained after administering test compound)−(reaction threshold obtained before administering test compound).

Setting [2] is: compound concentration 10 μmol/L, holding potential inactivating 50% Nav 1.7 channel (around −60 mV).
The mark [3] stands for this setting: holding potential inactivating 50% Nav 1.7 channel (around −60 mV).

Data on 54 molecules can be found in patent US10407395B2, “Benzimidazole compound and medical use thereof” (Sumitomo Dainippon Pharma Co., Ltd., priority 2015, dated 2019).

Read-outs that look alike come from different tables or passages of the source.

human SCN9A (Nav 1.7), sequence (Q15858 whole entry): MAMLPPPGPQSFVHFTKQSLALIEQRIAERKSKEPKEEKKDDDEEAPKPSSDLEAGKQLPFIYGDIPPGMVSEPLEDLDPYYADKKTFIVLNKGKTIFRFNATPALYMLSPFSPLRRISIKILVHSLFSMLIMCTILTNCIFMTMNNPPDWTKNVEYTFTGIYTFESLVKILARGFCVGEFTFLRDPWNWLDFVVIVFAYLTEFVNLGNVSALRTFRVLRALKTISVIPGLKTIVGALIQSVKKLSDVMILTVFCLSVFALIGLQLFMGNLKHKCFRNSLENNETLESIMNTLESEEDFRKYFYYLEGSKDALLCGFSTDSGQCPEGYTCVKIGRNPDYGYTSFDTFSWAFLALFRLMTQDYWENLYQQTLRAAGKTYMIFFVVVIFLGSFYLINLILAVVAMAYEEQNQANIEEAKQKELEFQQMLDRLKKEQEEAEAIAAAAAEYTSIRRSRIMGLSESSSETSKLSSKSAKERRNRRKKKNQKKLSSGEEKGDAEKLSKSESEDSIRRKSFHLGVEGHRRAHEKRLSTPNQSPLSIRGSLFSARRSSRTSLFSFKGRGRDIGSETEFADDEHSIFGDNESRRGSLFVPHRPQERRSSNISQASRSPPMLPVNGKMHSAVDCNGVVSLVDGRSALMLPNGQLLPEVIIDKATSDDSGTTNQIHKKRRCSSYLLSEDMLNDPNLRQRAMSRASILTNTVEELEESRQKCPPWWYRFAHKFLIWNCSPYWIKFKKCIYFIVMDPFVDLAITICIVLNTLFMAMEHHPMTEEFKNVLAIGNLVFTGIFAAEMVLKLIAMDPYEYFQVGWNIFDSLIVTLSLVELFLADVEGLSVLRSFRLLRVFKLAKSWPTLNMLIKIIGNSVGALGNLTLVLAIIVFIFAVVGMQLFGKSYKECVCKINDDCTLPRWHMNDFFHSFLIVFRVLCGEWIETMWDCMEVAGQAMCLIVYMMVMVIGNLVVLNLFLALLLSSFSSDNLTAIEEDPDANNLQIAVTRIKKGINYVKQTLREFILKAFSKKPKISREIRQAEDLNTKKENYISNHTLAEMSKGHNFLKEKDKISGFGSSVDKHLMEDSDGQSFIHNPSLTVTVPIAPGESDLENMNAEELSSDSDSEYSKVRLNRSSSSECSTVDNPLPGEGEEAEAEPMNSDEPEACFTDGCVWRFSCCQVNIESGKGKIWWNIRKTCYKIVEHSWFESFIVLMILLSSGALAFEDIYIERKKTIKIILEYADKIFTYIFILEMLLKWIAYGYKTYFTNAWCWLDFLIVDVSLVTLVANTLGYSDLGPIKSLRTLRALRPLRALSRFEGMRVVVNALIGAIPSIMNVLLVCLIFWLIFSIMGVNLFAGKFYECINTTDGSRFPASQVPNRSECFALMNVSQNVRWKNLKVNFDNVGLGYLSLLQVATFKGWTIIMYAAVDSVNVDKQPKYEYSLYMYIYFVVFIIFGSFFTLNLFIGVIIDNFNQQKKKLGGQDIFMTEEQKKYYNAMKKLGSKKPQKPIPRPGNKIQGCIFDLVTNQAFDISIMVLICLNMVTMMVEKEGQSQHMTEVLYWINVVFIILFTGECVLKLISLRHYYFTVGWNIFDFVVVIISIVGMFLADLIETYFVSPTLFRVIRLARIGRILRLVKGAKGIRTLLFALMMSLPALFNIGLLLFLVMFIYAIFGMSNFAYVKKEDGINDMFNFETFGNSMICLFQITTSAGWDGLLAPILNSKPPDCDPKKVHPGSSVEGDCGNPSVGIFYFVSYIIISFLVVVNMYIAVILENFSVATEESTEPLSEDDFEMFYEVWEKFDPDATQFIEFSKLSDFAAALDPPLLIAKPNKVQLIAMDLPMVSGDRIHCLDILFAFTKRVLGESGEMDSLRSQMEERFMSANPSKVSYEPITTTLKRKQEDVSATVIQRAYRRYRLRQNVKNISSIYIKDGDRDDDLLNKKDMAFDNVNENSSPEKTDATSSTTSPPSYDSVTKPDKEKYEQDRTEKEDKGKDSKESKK

In the case of `CC(C)(O)Cn1cnc2ccc(Oc3ccc(F)cc3)cc21` [Example 1, 1-[6-(4-fluorophenoxy)-1H-benzimidazol-1-yl]-2-methylpropan-2-ol], the inhibition at 10 µM at human SCN9A (Nav 1.7) (setting [2]) worked out at 83%. Besides, the “extension width (g) of reaction thresholds (50% paw withdrawal threshold after minus before administering test compound)” value in experiment [1] is listed as 2.8 g. Regarding `CC(C)(O)Cn1cnc2ccc(Oc3ccc(Cl)cc3)cc21` [Example 20, 1-[6-(4-chlorophenoxy)-1H-benzimidazol-1-yl]-2-methylpropan-2-ol], at human SCN9A (Nav 1.7), the inhibition at 10 µM amounted to 91%. For the same molecule, in experiment [1], the “extension width (g) of reaction thresholds (50% paw withdrawal threshold after minus before administering test compound)” value is 2.9 g. In the case of `CC(C)(O)Cn1cnc2ccc(Oc3ccc(C(F)(F)F)cn3)cc21` [Example 28, 2-methyl-1-(6-{[5-(trifluoromethyl)pyridin-2-yl]oxy}-1H-benzimidazol-1-yl)propan-2-ol], the inhibition at 10 µM on human SCN9A (Nav 1.7) (setting [2]) is 82%. Besides, the “extension width (g) of reaction thresholds (50% paw withdrawal threshold after minus before administering test compound)” value in experiment [1] is given as 6 g.

`CC(C)(O)Cn1cnc2cc(-c3ccc(F)cc3)ccc21` [Example 175, 1-[5-(4-fluorophenyl)-1H-benzimidazol-1-yl]-2-methylpropan-2-ol]: the inhibition at 10 µM at human SCN9A (Nav 1.7) (setting [2]) was determined as 16%. Still for that read-out and setting: in the case of `COc1cc(C(F)(F)F)ccc1-c1ccc2c(c1)ncn2CC(C)(C)O` [Example 176, 1-{5-[2-methoxy-4-(trifluoromethyl)phenyl]-1H-benzimidazol-1-yl}-2-methylpropan-2-ol] it was 73%; in that of `CC(C)(O)Cn1cnc2cc(-c3ccc(N4CCOCC4)cc3)ccc21` [Example 177], 54%.

As for `CC(C)(O)Cn1cnc2cc(-c3ccc(Cl)cc3)ccc21` [Example 178], the inhibition at 10 µM at human SCN9A (Nav 1.7) (setting [2]) is 34%. Regarding `CC(C)(O)Cn1cnc2cc(-c3ccc(C(F)(F)F)nc3)ccc21` [Example 180], at human SCN9A (Nav 1.7) (setting [2]), the inhibition at 10 µM came to 33%. In the case of `COc1ccc(-c2ccc3c(c2)ncn3CC(C)(C)O)cn1` [Example 182], the inhibition at 100 µM on human SCN9A (Nav 1.7) (setting [3]) is 11%.

As to `Cc1ccc(-c2ccc3c(c2)ncn3CC(C)(C)O)cn1` [Example 183], the inhibition at 100 µM on human SCN9A (Nav 1.7) (setting [3]) was 30%. As to `CC(C)(O)Cn1cnc2cc(-c3ccc(C(F)(F)F)cc3)ccc21` [Example 184], the inhibition at 10 µM at human SCN9A (Nav 1.7) (setting [2]) amounted to 67%. The same measure, in the same setting: the result for `CC(C)(O)Cn1cnc2cc(-c3ccc(Cl)cc3Cl)ccc21` [Example 185] reads 45%. On the same count and under the same terms, the result for `COc1cc(F)ccc1-c1ccc2c(c1)ncn2CC(C)(C)O` [Example 186] reads 22%; that for `Cc1cc(Cl)ccc1-c1ccc2c(c1)ncn2CC(C)(C)O` [Example 187], 45%; that for `CC(C)(O)Cn1cnc2cc(-c3ccc(Cl)cc3F)ccc21` [Example 188], 51%. The same measure, in the same setting: in the case of `CC(C)(O)Cn1cnc2cc(-c3cccc(Cl)c3F)ccc21` [Example 189] it was 42%; in that of `CC(C)(O)Cn1cnc2cc(-c3ccc(F)c(Cl)c3)ccc21` [Example 190], 42%; in that of `CC(C)(O)Cn1cnc2cc(-c3ccc(Cl)cc3C(F)(F)F)ccc21` [Example 191], 52%. Consider `CC(C)(O)Cn1cnc2cc(-c3ccc(C(F)(F)F)cc3Cl)ccc21` [Example 192], for which the inhibition at 10 µM at human SCN9A (Nav 1.7) (setting [2]) stood at 78%.

For the molecule `CC(C)(O)Cn1cnc2cc(-c3ccc(S(C)(=O)=O)cc3C(F)(F)F)ccc21` [Example 193], the inhibition at 10 µM at human SCN9A (Nav 1.7) (setting [2]) came out at 23%.

In the case of `CC(C)(O)Cn1cnc2cc(-c3cccc(C(F)(F)F)c3)ccc21` [Example 194], at human SCN9A (Nav 1.7) (setting [2]), the inhibition at 10 µM is 43%. For the molecule `CC(C)(O)Cn1cnc2cc(-c3ccccc3Cl)ccc21` [Example 195], the inhibition at 10 µM on human SCN9A (Nav 1.7) (setting [2]) is 31%.

`CC(C)(O)Cn1cnc2cc(-c3cccc(Cl)c3)ccc21` [Example 196]: at human SCN9A (Nav 1.7) (setting [2]), the inhibition at 10 µM was 49%.

Take `CC(C)(O)Cn1cnc2cc(-c3ccccc3OC(F)(F)F)ccc21` [Example 197]: the inhibition at 10 µM at human SCN9A (Nav 1.7) (setting [2]) is 33%.

For `CC(C)(O)Cn1cnc2cc(-c3cccc(OC(F)(F)F)c3)ccc21` [Example 198], the inhibition at 10 µM at human SCN9A (Nav 1.7) (setting [2]) came out at 58%.

For the molecule `COc1cc(-c2ccc3c(c2)ncn3CC(C)(C)O)cc(C(F)(F)F)c1` [Example 199], the inhibition at 10 µM at human SCN9A (Nav 1.7) (setting [2]) was 84%.

As to `CC(C)(O)Cn1cnc2cc(-c3cc(F)cc(Cl)c3)ccc21` [Example 200], on human SCN9A (Nav 1.7) (setting [2]), the inhibition at 10 µM came out at 52%. Regarding `CC(C)(O)Cn1cnc2cc(-c3ccc4ocnc4c3)ccc21` [Example 201], the inhibition at 10 µM on human SCN9A (Nav 1.7) (setting [2]) was found to be 32%. On the same count and under the same terms, the result for `CC(C)(O)Cn1cnc2cc(-c3cnoc3)ccc21` [Example 202] reads 21%. On the same count and under the same terms, in the case of `OC1(Cn2cnc3cc(-c4ccc(C(F)(F)F)cc4F)ccc32)COC1` [Example 203] it was 26%; in that of `OC1(Cn2cnc3cc(-c4ccc(OC(F)(F)F)cc4)ccc32)COC1` [Example 204], 28%; in that of `OC1(Cn2cnc3cc(-c4ccc(C(F)(F)F)cc4Cl)ccc32)COC1` [Example 206], 69%. On the same count and under the same terms, the result for `OC1(Cn2cnc3cc(-c4ccc(Cl)cc4C(F)(F)F)ccc32)COC1` [Example 207] reads 65%.

Turning to `Cc1c(Cl)cccc1-c1ccc2c(c1)ncn2CC1(O)COC1` [Example 208], at human SCN9A (Nav 1.7) (setting [2]), the inhibition at 10 µM worked out at 43%.

For `Cc1ccc(Cl)cc1-c1ccc2c(c1)ncn2CC1(O)COC1` [Example 209], the inhibition at 10 µM at human SCN9A (Nav 1.7) (setting [2]) was determined as 48%. Same read-out and setting: in the case of `OC1(Cn2cnc3cc(-c4cc(C(F)(F)F)ccc4F)ccc32)COC1` [Example 210] it was 48%; in that of `OC1(Cn2cnc3cc(-c4cc(C(F)(F)F)ccc4Cl)ccc32)COC1` [Example 211], 44%; in that of `COc1cc(-c2ccc3c(c2)ncn3CC2(O)COC2)cc(C(F)(F)F)c1` [Example 212], 55%. Still for that read-out and setting: the result for `Cc1cc(-c2ccc3c(c2)ncn3CC2(O)COC2)cc(C(F)(F)F)c1` [Example 213] reads 41%; that for `OC1(Cn2cnc3cc(-c4cc(F)cc(Cl)c4)ccc32)COC1` [Example 214], 42%. `Cc1c(-c2ccc3c(c2)ncn3CC2(O)COC2)cccc1C(F)(F)F` [Example 215]: the inhibition at 10 µM at human SCN9A (Nav 1.7) (setting [2]) came out at 84%. For the molecule `COc1cccc(-c2ccc3c(c2)ncn3CC2(O)COC2)c1Cl` [Example 216], the inhibition at 10 µM at human SCN9A (Nav 1.7) (setting [2]) amounted to 53%. Still for that read-out and setting: the result for `OC1(Cn2cnc3cc(-c4cccc(C(F)(F)F)c4Cl)ccc32)COC1` [Example 217] reads 60%; that for `Cc1cc(Cl)cc(-c2ccc3c(c2)ncn3CC2(O)COC2)c1` [Example 218], 53%; that for `CC(C)(O)CCn1cnc2cc(-c3ccc(F)cc3)ccc21` [Example 219], 40%. On the same count and under the same terms, the result for `CC(C)(O)CCn1cnc2cc(-c3ccc(Cl)cc3)ccc21` [Example 220] reads 52%; that for `CC(C)(O)CCn1cnc2cc(-c3ccc(C(F)(F)F)cc3)ccc21` [Example 221], 45%.

`COc1cc(C(F)(F)F)ccc1-c1ccc2c(c1)ncn2CCC(C)(C)O` [Example 222]: the inhibition at 10 µM on human SCN9A (Nav 1.7) (setting [2]) came out at 45%. Still for that read-out and setting: in the case of `CC(C)(O)CCn1cnc2cc(-c3ccc(C(F)(F)F)cc3F)ccc21` [Example 223] it was 47%; in that of `CC(C)(O)Cn1cnc2cc(Oc3ccc(C(F)(F)F)cc3F)ccc21` [Example 224, 1-{5-[2-fluoro-4-(trifluoromethyl)phenoxy]-1H-benzimidazol-1-yl}-2-methylpropan-2-ol], 53%. The same measure, in the same setting: the result for `CC(C)(O)Cn1cnc2cc(Oc3ccc(C(F)(F)F)cc3)ccc21` [Example 225] reads 64%; that for `OC1(Cn2cnc3cc(Oc4ccc(C(F)(F)F)cc4)ccc32)COC1` [Example 226], 45%. Same read-out and setting: in the case of `C[C@](O)(CO)Cn1cnc2ccc(Oc3ccc(C(F)(F)F)cn3)cc21` [Example 227, (2R)-2-methyl-3-(6-{[5-(trifluoromethyl)pyridin-2-yl]oxy}-1H-benzimidazol-1-yl)propane-1,2-diol] it was 11%. As for `C[C@@H](n1cnc2ccc(Oc3ccc(C(F)(F)F)cn3)cc21)C(C)(C)O` [Example 228, (3R)-2-methyl-3-(6-{[5-(trifluoromethyl)pyridin-2-yl]oxy}-1H-benzimidazol-1-yl)butan-2-ol], on human SCN9A (Nav 1.7) (setting [3]), the inhibition at 100 µM was 66%.
